Source: US6603058B1, “Non-human animal model for obesity and uses thereof” (Oklahoma Medical Research Foundation, priority 1998, dated 2003)

Experiments:
Format in all cases: in vivo, mouse
[1] = Coat pigmentation of mice treated with MSH for two weeks
Source text: An effect of MSH could also be seen on coat pigmentation. […] Yellow coat pigmentation gradually reappeared after MSH treatment was terminated (data not shown).

[2] = Weight change and food intake in wildtype and POMC null mutant mice under standard diet, standard diet plus MSH analog, or high fat diet; conditions: for food intake, standard diet v. standard diet & MSH analog treatment / weight change, standard diet v. standard diet & MSH analog treatment: MSH analog i.p. 1 or 2 μg once daily
Description: P values were determined by ANOVA. If the major component of weight regulation through the melanocortinergic pathway was the regulation of feeding behavior, the observed changes in body weight in POMC null mutant mice should be paralleled by a similar pattern in food uptake. This, however, was not observed (FIGS. 5B and 5D and Table 1).

[3] = Daily intraperitoneal MSH analog treatment of POMC homozygous mutant and wildtype female mice: body weight change and food intake; conditions: for weight loss, share of excess weight: mutant female mice, 1 microgram (~1 nmol) i.p. daily; for weight loss in wildtype mice: wildtype non-obese littermates, peripheral (i.p.) daily treatment
Description: To initially test for the effect of peripheral melanocortins on weight change, we selected the stable agonist [Ac-Cys^4, D-Phe^7, Cys^10] αMSH (4-13)(described in Cody et al., 1985, J. Med. Chem. 28, 583-588; incorporated herein by reference in its entirety). Briefly, [Ac-Cys^4,D-Phe^7, Cys^10] α-MSH (4-13) amide was obtained from Peninsula Laboratories, CA. Lyophilized powder was dissolved in water at 1 mg/ml, which was diluted in PBS to 10 μg/mL. During the experiments, mice were maintained on a normal 12h/12h light/dark cycle with food and water ad libitum. Mice were fed standard laboratory rodent diet (#5001).
In order to see whether the α-MSH analog has an effect on food intake, we compared weight change and food intake in these mice for one week (see bars in FIGS. 4A and 4B) under MSH analog treatment and after MSH analog treatment was stopped (FIGS. 4C and 4D). During one week under MSH analog treatment mutant mice lost 0.5 g, while wildtype littermates gained 0.3 g; the food intake during this time was equivalent in both groups (20.7 g in wildtypes, and 22.7 g in mutants).

[4] = both on standard diet & MSH analog treatment

For “[Ac-Cys^4,D-Phe^7, Cys^10] α-MSH (4-13) amide [MSH analog]”, the “effect on coat pigmentation” value [1] was “lost their yellowish tinge”, the “food intake, wildtype v. mutant” value [2, 4] was “↑” and the “weight change, wildtype v. mutant” value [2, 4] was “↓”. The “food intake, standard diet v. standard diet & MSH analog treatment” value ([2]; mutant mice) was “decreases food intake and ↓”, the “weight change, standard diet v. standard diet & MSH analog treatment” value ([2]; mutant mice) was “lose excess weight and ↓” and the “food intake, standard diet v. standard diet & MSH analog treatment” value ([2]; wildtype mice) was “decreases food intake and ↓”. For the same substance, the “weight change, standard diet v. standard diet & MSH analog treatment” value ([2]; wildtype mice) was “←→”, the “weight loss, share of excess weight” value ([3]; by 2 weeks) was 46 % of excess weight and the “weight loss, share of excess weight” value ([3]; within one week) was 38 % of excess weight. For the same substance, the “body weight gained in one week after MSH analog treatment had been stopped for two weeks” value ([3]; mutant mice) was 1.7 g, the “food intake during one week under MSH analog treatment” value ([3]; mutant mice) was 22.7 g and the “food intake in one week after MSH analog treatment had been stopped for two weeks” value ([3]; mutant mice) was 35.7 g. For the same substance, the “time after stop of MSH injections until mutant mice started to gain weight” value ([3]; mutant mice) was “about 10 days”, the “loss of excess weight after two weeks (summary statement)” value ([3]; mutant mice treated peripherally) was “over 40 % of excess weight” and the “body weight lost during one week under MSH analog treatment” value ([3]; mutant mice, second week of treatment) was 0.5 g. For the same substance, the “difference in food intake, mutants over wildtypes, after treatment stopped for two weeks” value ([3]; one week, p<0.005) was 11.5 g, the “body weight gained in one week after MSH analog treatment had been stopped for two weeks” value ([3]; wildtype littermates) was 0.3 g and the “body weight gained during one week under MSH analog treatment” value ([3]; wildtype littermates, second week of treatment) was 0.3 g. The “food intake during one week under MSH analog treatment” value ([3]; wildtype mice) was 20.7 g, the “food intake in one week after MSH analog treatment had been stopped for two weeks” value ([3]; wildtype mice) was 24.2 g and the “weight loss in wildtype mice” value ([3]; listed as MSH-agonist) was “no significant weight loss”. The “weight loss in wildtype mice” value ([3]; listed as stable α-MSH agonist) was “did not lose significant weight”.
